Test results: patent US6531606B1, “Pharmaceutical compositions incorporating aryl substituted olefinic amine compounds” (Targacept, Inc., priority 1997, dated 2003)
pEC50, pKi: −log10 of the molar value. Where a name gives a salt, the structure may show the parent alone. Read-outs that look alike come from different tables or passages of the source.

Experiments:
[1] = target: T1, high affinity CNS nicotinic receptors (Rattus norvegicus, UniProt P09483+P12390); test: biochemical; type: binding; conditions: calculated from IC50 values using the method of Cheng et al.
T1 construct: from tissue

[2] = system: CNS nicotinic receptors (dopamine release); test: Determination of dopamine release; type: cell-based; conditions: for EC50: read-out: Dopamine Release EC50 (nM); for Emax: read-out: Dopamine Release Emax
[3] = target: T2, muscle receptors (nicotinic receptors of human muscle) (Homo sapiens, UniProt P02708+P07510+Q07001); test: Determination of interaction with muscle; type: cell-based; conditions: maximal activation (Emax) as percentage of maximal activation induced by (S)-(-)-nicotine
T2 construct: endogenous in cells; host or cells: cell preparations derived from muscle
Text: The compounds of the present invention, when employed in effective amounts in accordance with the method of the present invention, lack the ability to elicit activation of nicotinic receptors of human muscle to any significant degree. […] Generally, typical compounds useful in carrying out the present invention activate isotopic rubidium ion flux by less than 20 percent, often by less than 15 percent, and frequently by less than 10 percent, of that elicited by an equal molar amount of (S)-(−)-nicotine.
(§1) The determination of the interaction of the compounds with muscle receptors was carried out in accordance with the techniques described in U.S. Pat. No. 5,597,919 to Dull et al., the subject matter of which is already incorporated herein by reference in its entirety. […] The maximal activation for individual compounds (Emax) was determined as a percentage of the maximal activation induced by (S)-(−)-nicotine.

[4] = target: T3, ganglionic receptors (ganglionic-type nicotinic receptors) (Rattus norvegicus, UniProt P04757+P12392); test: Determination of interaction with ganglia; type: cell-based; conditions: maximal activation (Emax) as percentage of maximal activation induced by (S)-(-)-nicotine
T3 construct: endogenous in cells; host or cells: cell preparations derived from the adrenal gland
Text: By this is meant that a particular dose of compound resulting in prevention and/or treatment of a CNS disorder is essentially ineffective in eliciting activation of certain ganglionic-type nicotinic receptors. […] As such, the compounds of the present invention have poor ability to cause isotopic rubidium ion flux through nicotinic receptors in cell preparations derived from the adrenal gland. Generally, the compounds useful in the present invention activate isotopic rubidium ion flux by less than 25 percent, often by less than 15 percent, frequently by less than 10 percent, and even essentially 0 percent, of that elicited by an equal molar amount of (S)-(−)-nicotine.
as §1, with “ganglionic” for “muscle”

T2 sequence (P02708 21-457): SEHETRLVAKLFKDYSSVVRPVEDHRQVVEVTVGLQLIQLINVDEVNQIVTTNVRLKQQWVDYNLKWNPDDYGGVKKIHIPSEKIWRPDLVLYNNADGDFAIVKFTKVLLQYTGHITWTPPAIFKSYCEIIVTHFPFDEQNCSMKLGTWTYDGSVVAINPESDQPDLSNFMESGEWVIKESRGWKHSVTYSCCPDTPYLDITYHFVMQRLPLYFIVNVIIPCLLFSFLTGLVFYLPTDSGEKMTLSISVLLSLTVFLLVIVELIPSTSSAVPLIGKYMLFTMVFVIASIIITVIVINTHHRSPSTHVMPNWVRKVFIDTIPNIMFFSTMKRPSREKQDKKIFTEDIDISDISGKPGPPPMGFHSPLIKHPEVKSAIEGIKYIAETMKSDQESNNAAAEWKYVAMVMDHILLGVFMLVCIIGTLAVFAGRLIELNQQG
T2 sequence (P11230 24-501 partner): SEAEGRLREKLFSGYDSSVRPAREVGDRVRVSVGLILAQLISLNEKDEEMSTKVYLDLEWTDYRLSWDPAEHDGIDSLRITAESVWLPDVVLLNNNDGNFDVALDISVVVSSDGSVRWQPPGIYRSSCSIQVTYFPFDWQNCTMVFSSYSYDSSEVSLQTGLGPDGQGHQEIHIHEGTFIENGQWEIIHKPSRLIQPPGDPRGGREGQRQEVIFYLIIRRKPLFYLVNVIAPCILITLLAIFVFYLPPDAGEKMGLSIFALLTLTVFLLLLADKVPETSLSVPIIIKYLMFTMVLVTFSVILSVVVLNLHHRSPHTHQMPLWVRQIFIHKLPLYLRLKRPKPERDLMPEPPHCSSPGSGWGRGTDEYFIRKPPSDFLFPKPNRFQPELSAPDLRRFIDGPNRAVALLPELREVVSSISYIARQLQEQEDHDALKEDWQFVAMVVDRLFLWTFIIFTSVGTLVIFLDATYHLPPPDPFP
T2 sequence (Q07001 22-517): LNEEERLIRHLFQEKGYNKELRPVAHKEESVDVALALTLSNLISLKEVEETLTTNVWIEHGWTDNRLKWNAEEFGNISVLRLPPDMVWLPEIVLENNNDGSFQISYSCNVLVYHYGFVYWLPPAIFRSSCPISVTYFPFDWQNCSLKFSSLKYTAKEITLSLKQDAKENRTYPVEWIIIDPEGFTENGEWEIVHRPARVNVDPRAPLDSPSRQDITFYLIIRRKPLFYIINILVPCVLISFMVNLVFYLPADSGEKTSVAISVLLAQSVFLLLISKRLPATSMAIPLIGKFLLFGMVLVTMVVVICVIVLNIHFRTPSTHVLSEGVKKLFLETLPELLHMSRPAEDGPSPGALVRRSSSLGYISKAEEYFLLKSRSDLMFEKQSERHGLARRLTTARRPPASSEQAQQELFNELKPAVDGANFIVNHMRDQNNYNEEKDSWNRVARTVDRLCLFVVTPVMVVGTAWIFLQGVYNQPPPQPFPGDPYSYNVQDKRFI
T2 sequence (P07510 23-517): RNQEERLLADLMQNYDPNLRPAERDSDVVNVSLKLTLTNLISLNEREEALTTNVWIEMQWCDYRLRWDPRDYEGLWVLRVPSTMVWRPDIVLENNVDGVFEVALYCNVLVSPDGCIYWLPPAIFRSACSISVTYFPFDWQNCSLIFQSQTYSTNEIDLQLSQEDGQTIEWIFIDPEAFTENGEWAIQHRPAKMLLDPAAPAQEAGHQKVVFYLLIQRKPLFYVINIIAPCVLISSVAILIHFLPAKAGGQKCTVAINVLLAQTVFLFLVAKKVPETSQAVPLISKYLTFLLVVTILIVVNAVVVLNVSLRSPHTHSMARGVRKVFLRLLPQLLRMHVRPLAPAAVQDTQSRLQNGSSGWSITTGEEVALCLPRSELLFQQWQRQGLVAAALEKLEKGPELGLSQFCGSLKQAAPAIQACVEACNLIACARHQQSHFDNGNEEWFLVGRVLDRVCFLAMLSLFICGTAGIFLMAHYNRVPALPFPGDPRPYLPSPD
T3 sequence (P04757 26-499): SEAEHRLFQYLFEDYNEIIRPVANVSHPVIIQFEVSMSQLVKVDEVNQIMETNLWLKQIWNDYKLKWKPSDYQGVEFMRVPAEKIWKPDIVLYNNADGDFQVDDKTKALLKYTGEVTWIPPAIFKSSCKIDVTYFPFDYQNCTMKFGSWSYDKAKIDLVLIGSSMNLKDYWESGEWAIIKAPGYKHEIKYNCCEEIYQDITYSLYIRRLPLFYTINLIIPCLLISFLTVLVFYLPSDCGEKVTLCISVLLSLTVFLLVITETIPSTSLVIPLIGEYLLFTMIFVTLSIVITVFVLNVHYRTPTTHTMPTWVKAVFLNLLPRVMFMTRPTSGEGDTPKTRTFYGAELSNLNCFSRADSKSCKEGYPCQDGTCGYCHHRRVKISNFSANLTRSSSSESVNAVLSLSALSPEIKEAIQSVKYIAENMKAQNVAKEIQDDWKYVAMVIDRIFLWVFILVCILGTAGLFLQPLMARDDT
T3 sequence (P12392 21-495): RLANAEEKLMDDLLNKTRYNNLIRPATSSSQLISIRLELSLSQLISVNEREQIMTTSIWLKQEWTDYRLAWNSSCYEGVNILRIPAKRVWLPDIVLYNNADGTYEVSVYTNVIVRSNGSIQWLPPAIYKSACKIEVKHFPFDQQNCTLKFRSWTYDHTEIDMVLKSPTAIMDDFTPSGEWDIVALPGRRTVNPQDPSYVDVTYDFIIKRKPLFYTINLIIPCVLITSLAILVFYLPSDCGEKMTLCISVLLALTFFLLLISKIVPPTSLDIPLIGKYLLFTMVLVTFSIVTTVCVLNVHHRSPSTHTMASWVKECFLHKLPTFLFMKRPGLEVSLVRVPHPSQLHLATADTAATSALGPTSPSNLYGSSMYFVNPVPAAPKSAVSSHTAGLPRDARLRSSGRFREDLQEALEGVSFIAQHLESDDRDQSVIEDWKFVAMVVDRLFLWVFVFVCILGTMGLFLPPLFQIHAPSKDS
T1 sequence (P09483 31-630): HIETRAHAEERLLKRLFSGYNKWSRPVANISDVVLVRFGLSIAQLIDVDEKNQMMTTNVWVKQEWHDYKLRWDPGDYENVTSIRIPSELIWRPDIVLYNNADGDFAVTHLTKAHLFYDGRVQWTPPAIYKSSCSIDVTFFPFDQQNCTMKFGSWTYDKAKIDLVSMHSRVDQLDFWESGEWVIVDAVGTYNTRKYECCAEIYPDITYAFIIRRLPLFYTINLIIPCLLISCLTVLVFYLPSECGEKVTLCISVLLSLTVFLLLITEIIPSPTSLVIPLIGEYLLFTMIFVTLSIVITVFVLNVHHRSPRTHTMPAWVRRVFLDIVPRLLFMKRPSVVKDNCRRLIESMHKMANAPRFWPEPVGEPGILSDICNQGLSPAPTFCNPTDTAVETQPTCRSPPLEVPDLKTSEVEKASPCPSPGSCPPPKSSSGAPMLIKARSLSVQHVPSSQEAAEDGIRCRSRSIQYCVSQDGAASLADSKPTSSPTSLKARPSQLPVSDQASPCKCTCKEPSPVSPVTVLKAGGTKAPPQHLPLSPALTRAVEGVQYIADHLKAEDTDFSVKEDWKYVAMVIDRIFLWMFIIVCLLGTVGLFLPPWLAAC
T1 sequence (P12390 25-500): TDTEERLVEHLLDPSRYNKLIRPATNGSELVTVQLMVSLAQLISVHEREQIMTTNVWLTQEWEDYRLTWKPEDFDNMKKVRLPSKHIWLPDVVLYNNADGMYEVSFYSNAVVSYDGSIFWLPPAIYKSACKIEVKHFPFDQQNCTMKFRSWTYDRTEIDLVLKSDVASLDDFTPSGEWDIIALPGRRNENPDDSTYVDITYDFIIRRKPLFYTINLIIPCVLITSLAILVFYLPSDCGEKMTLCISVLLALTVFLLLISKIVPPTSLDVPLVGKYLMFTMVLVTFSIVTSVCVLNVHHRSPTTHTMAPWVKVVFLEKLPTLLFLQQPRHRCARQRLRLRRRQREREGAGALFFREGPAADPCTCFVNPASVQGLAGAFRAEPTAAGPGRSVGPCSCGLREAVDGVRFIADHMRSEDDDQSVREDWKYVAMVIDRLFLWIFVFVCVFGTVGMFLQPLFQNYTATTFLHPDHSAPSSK

For CNCC/C=C/c1cncc(-c2ccccc2)c1 [Sample No. 8, (E)-N-Methyl-4-[3-(5-phenylpyridin)yl]-3-buten-1-amine], the pKi [1] was 6.74, the EC50 [2] was greater than 100000 nM and the “Muscle Effect (% nicotine)” value [3] was 8 % nicotine. For the same compound, the “Ganglion Effect (% nicotine)” value [4] was 0 % nicotine.

For CNCC/C=C/c1cncc(OC(C)C)c1 [Sample No. 4, (E)-N-Methyl-4-[3-(5-isopropoxypyridin)yl]-3-buten-1-amine], the pKi [1] was 8.22, the “Muscle Effect (% nicotine)” value [3] was 8 % nicotine and the “Ganglion Effect (% nicotine)” value [4] was less than 15 % nicotine.

Compound NCC/C=C/c1cncc(Br)c1 (as salt: fumarate) [Sample No. 2, (E)-4-[3-(5-Bromopyridin)yl]-3-buten-1-amine Hemifumarate] has a melting point of 175 to 176.5 °C.

For CN1CCC[C@H]1c1cccnc1 [Sample No. C-1, (S)-(−)-nicotine, reference compound], the “Muscle Effect (% nicotine)” value [3] was 100 % nicotine and the “Ganglion Effect (% nicotine)” value [4] was 100 % nicotine.

Work on CNCC/C=C/c1cncc(N)c1 [Sample No. 9, (E)-N-methyl-4-[3-(5-aminopyridin)yl]-3-buten-1-amine] yielded a pKi [1] of 6.18, an EC50 [2] of 2000 nM and an Emax [2] of 85%. The “Muscle Effect (% nicotine)” value [3] was 4 % nicotine and the “Ganglion Effect (% nicotine)” value [4] was 4 % nicotine.

For CNCC/C=C/c1cncc(OCc2ccccc2)c1 [Sample No. 1, (E)-N-Methyl-4-[3-(5-benzyloxypyridin)yl]-3-buten-1-amine], the pKi [1] was 8.30, the EC50 [2] was 4000 nM and the “Muscle Effect (% nicotine)” value [3] was 12 % nicotine. For the same compound, the “Ganglion Effect (% nicotine)” value [4] was 0 % nicotine.

Compound NCC/C=C/c1cncc(Br)c1 [Sample No. 2, (E)-4-[3-(5-Bromopyridin)yl]-3-buten-1-amine Hemifumarate] has a pKi [1] of 7.10, an EC50 [2] of 2400 nM and an Emax [2] of 107%. The “Muscle Effect (% nicotine)” value [3] was 8 % nicotine and the “Ganglion Effect (% nicotine)” value [4] was 11 % nicotine.

With NCC/C=C/c1cccnc1.O=C(O)/C=C/C(=O)O.O=C(O)/C=C/C(=O)O [Sample No. 6, (E)-4-(3-pyridinyl)-3-buten-1-amine difumarate] the pKi [1] was 6.92, the EC50 [2] was 5020 nM and the Emax [2] was 81%. The “Muscle Effect (% nicotine)” value [3] was 15 % nicotine and the “Ganglion Effect (% nicotine)” value [4] was 23 % nicotine.

CCOc1cncc(/C=C/CCNC)c1 [Sample No. 7, (E)-N-Methyl-4-[3-(5-ethoxypyridin)yl]-3-buten-1-amine Sesquifumarate] showed a pKi [1] of 8.30, a pEC50 ([2]; read-out: Dopamine Release EC50) of 6.56 and an Emax [2] of 70%. For the same compound, the “Muscle Effect (% nicotine)” value [3] was 3 % nicotine and the “Ganglion Effect (% nicotine)” value [4] was less than 15 % nicotine.

With CNCC/C=C/c1cncc(Oc2ccccc2)c1 [Sample No. 3, (E)-N-Methyl-4-[3-(5-phenoxypyridin)yl]-3-buten-1-amine] the pKi [1] was 7.68, the EC50 [2] was 114 nM and the “Muscle Effect (% nicotine)” value [3] was 5 % nicotine. For the same compound, the “Ganglion Effect (% nicotine)” value [4] was less than 15 % nicotine.

For CNCC/C=C/c1cncc(COC)c1 [Sample No. 5, (E)-N-Methyl-4-[3-(5-methoxymethylpyridin)yl]-3-buten-1-amine], the pKi [1] was 6.89, the EC50 [2] was 16000 nM and the “Muscle Effect (% nicotine)” value [3] was 13 % nicotine. For the same compound, the “Ganglion Effect (% nicotine)” value [4] was 0 % nicotine.
